Laboratory results published in patent US9724341B2 (priority 2013, dated 2017).
Like-named read-outs stand apart in the source and are kept apart here.

Key:
[1] = for Nicotine Mass Loss: isothermal TGA, API powder
Procedure: A typical calorimetric scan of nicotine m-salicylate powder is illustrated in FIG. 2. […] Thermogravimetric analysis on the powder was run in both scanning and isothermal modes. […] Isothermal data were also obtained on the API powder (˜10 mg per run) at 40° C., 50° C., and 60° C. for periods of at least 3 days.

[2] = for mechanical integrity of the film: dropped 5 times
Procedure: Fragility of the spray coating was tested using two foil arrays coated with ˜200 μg of nicotine per foil (˜11 μg nicotine/mm^2, which is about a 21 μm thick film of nicotine m-salicylate). Five foils from each array were assayed for pre-drop coated dose. Each foil array was then placed into a dose cartridge, sealed into a plastic tube, and dropped 3 times onto the floor from a height of about 1 meter. Five additional foils from each array were assayed for the post-drop coated dose.
In a follow-up study, we studied the effect of thickness on the mechanical integrity of the film. In this experiment, three foils from an array were assayed for pre-drop coated dose. Each foil array was then placed into a dose cartridge, sealed into a plastic tube, and dropped 5 times onto the floor from a height of about 1 meter. Three foils from each array were then assayed for the post-drop coated dose.

[3] = for time coated film relatively stable (not more than 20% nicotine loss): 40 μg/foil; for time coated film stable (nicotine): 170 μg/foil
Procedure: Loss of nicotine and m-salicylic acid due to volatility and hygroscopic effects: Nicotine salts can suffer volatility issues and can also be quite hygroscopic. For instance, nicotine sulfate absorbs water so readily that it is shipped in aqueous solution. Hygroscopic effects on nicotine m-salicylate were evaluated for 2 doses at two conditions, 22° C./44% RH (ambient condition) and 40° C./75% RH. According to the Antoine equation for water, 40° C./75% RH translates to supersaturated humidity at 22° C. Each coated EMD array was placed flat on a Petri dish (without a cover) which was then stored at either 22° C./44% RH or 40° C./75% RH. At each time point, at least 4 random individual foils were removed from the array and each foil was extracted with 1.5 ml of 50/50 ACN/water for coated dose determination.

[4] = sensitive LC method for phenol
[5] = remark: listed apart in the source
Procedure: The innate volatility of free base nicotine can be greatly altered once bound to a counterion acid. The stability of nicotine in the resulting salt form can vary widely, ultimately impacting its desirability for commercial consideration. Certain packaging configurations can mitigate nicotine loss. […] Decreasing the equilibrium vapor pressure point is believed to minimize the total nicotine loss. For this study, different packaging configurations were tested to investigate the following variables: container material, presence of adjuncts, and total volume of space. Container materials consisted of either glass or multi-laminate foil pouches. Glass is impermeable to vapors. Once the total volume of the glass container is flooded with nicotine vapors and any surface adsorption occurs, equilibrium is reached and no additional loss of nicotine should be observed. Though foil is also impermeable, the inner surface of the pouch is lined with an ethylene acid copolymer that promotes vapor absorbency. The copolymer should lead to greater nicotine loss within a pouch than a glass vial of the same total volume.
The presence of adjuncts, such as a drug cartridge housing, is a likely scenario for the final commercial product. The composition of the adjunct will affect equilibrium vapor pressure point if it preferentially absorbs vapors. For this study, a polycarbonate adjunct with a surface area of ˜150 cm^2 was introduced to the glass vial and pouch scenarios. Finally, the total packaging volume was examined. The smaller the available space, the sooner the equilibrium pressure can be reached. Open containers represent the worst case scenario, as the infinite space means that the equilibrium pressure can never be achieved. To set up the experiment, screening foils were spray coated with a 1×2 cm footprint of nicotine m-salicylate to a thickness of ˜11 ug nicotine/mm^2 (equivalent to a coated dose of 200 ug nicotine equivalent on an EMD foil). After a few random screening foils were assayed for initial time point coated dose, the remaining foils were placed in one of the following containers: • Capped glass vial (˜40 mL volume) • Heat-sealed standard pouch (˜133 mm×87 mm) • Heat-sealed standard pouch, stored with polycarbonate material (˜150 cm^2 surface area) • Uncapped glass vial (same vial as first bullet) • Binder-clipped (semi-sealed) standard pouch (˜133 mm×87 mm) • Capped glass vial, stored with polycarbonate • Heat-sealed half pouch (˜69 mm×87 mm) • Uncovered Petri dish
The packaged screening foils were stored at either 40° C. (oven) or 25° C. (laboratory cabinet), without relative humidity control. At pre-determined time points, three foils from each condition were washed with 5 mL of 50% v/v acetonitrile in water and analyzed on the HPLC for nicotine and m-salicylate content.

[6] = remark: listed apart in the source
Procedure: Solubility limit tests were performed on nicotine m-salicylate in a number of relevant solvents. […] The approximate saturation limits are in units of mg nicotine equivalent per mL of solvent. […] However, the analytical methods developed for detecting impurities related to the m-salicylate use 236 nm as the detection wavelength. Methanol has high absorbance in this range and can therefore interfere with the analytes of interest. Acetonitrile, on the other hand, has low background absorbance in this wavelength range and is therefore ideal for use.

[7] = 25° C.; cited from earlier work
[8] = film thickness 29 μm, Post-drop (5 drops, about 1 meter)
[9] = film thickness 37 μm, Post-drop (5 drops, about 1 meter)

Compound: Nicotine bifumarate
- Nicotine Mass Loss ([1]; 40° C.): 12 µg/day
- Nicotine Mass Loss ([1]; 50° C.): 66 µg/day
- Nicotine Mass Loss ([1]; 60° C.): 305 µg/day

Compound: CN1CCCC1c1cccnc1.O=C(O)c1cccc(O)c1 (stereo not drawn) [Nicotine m-salicylate, nicotine meta-salicylate]
- MMAD (NGI cups coated with 1% (w/v) benzoic acid): 0.9 um
- MMAD (bare NGI cups, 30 LPM, average): 0.7 μm
- Particle size (overall conclusion): about 1 μm
- mechanical integrity of the film ([2]; 350 μg nicotine (~37 μm thick)): begin to show signs of fragility
- M-salicylate coated dose (average ± 1 standard deviation) [2, 8]: 244 ± 3
- Nicotine coated dose (average ± 1 standard deviation) [2, 8]: 277 ± 3
- M-salicylate coated dose (average ± 1 standard deviation) ([2]; film thickness 29 μm, Pre-drop): 247 ± 1
- Nicotine coated dose (average ± 1 standard deviation) ([2]; film thickness 29 μm, Pre-drop): 275 ± 3
- M-salicylate coated dose (average ± 1 standard deviation) [2, 9]: 299 ± 7
- Nicotine coated dose (average ± 1 standard deviation) [2, 9]: 335 ± 6
- M-salicylate coated dose (average ± 1 standard deviation) ([2]; film thickness 37 μm, Pre-drop): 311 ± 0
- Nicotine coated dose (average ± 1 standard deviation) ([2]; film thickness 37 μm, Pre-drop): 347 ± 6
- coated dose post-drop vs pre-drop, average of two arrays ([2]; ~200 μg nicotine per foil, dropped 3 times): ~0.8%
- mechanical integrity of the film ([2]; ~29 μm thickness): not lost
- time coated film relatively stable (not more than 20% nicotine loss) ([3]; 22° C./60% RH): up to 4 weeks
- time coated film relatively stable (not more than 20% nicotine loss) ([3]; 35° C./80% RH): ≤ 5 days
- time coated film relatively stable (not more than 20% nicotine loss) ([3]; 60° C./35% RH): up to 4 hours
- time coated film stable (nicotine) ([3]; 22° C./60% RH): ≥ 4 weeks
- time coated film stable (nicotine) ([3]; 25° C./90% RH): ≥ 13 days
- time coated film stable (nicotine) ([3]; 35° C./80% RH): ≥ 7 days
- time coated film stable (nicotine) ([3]; 60° C./35% RH): at least 8 hours
- M-salicylic acid stability of coated films ([3]; all conditions except the 40 μg/foil dose at 25° C./90% RH): relatively stable
- maximum content of phenol in aerosols (estimated from method sensitivity; phenol not observed) [4]: ≤ 0.013%
- Nicotine Mass Loss ([1]; 40° C.): 5 µg/day
- Nicotine Mass Loss ([1]; 50° C.): 19 µg/day
- Nicotine Mass Loss ([1]; 60° C.): 107 µg/day
- residual after scanning TGA ([1]; room temperature to 500° C., pan weighed before and after): ~0.2%
- nicotine mass loss, times less than nicotine ortho-salicylate ([1]; storage temperatures between 40-60° C.): 2-3 ×
- loss of nicotine content ([5]; 25° C., Petri dish, 18 weeks): 13%
- m-salicylic acid content ([5]; 25° C., all eight conditions): stable
- Nicotine loss ([5]; 25° C., up to 18 weeks, all conditions except Petri dish): ≤ 7 % of initial
- m-salicylate content ([5]; 40° C., all other configurations, 16 weeks): 100-110 % of initial
- loss of nicotine content ([5]; 40° C., all other stabilized (sealed) conditions): ≤ 10%
- loss of nicotine content ([5]; 40° C., sealed standard sized pouches containing polycarbonate material): ~20%
- m-salicylate content ([5]; Petri dish, four weeks at 40° C.): ~80 % of initial
- Saturation point ([6]; 50/50 acetonitrile/water): 64 mg nicotine/mL
- Saturation point ([6]; 80/20 methanol/water): 118 mg nicotine/mL
- Saturation point ([6]; Acetonitrile): 9 mg nicotine/mL
- Saturation point ([6]; Ethanol): 33 mg nicotine/mL
- Saturation point ([6]; Methanol): 103 mg nicotine/mL
- Saturation point ([6]; Water): 58 mg nicotine/mL
- Saturation point ([6]; acetone): <<10 mg nicotine/mL
- solubility ([6]; acetone): < 10000 µg/mL
- solubility ([6]; pure acetonitrile): ~10000 µg/mL

Compound: CN1CCCC1c1cccnc1.O=C(O)/C=C/C(=O)O (stereo not drawn) [Nicotine monofumarate]
- Nicotine Mass Loss ([1]; 40° C.): 7 µg/day
- Nicotine Mass Loss ([1]; 50° C.): 39 µg/day
- Nicotine Mass Loss ([1]; 60° C.): 219 µg/day

Compound: CC(C)(C(=O)O)C(=O)O.CC(C)(C(=O)O)C(=O)O.CN1CCCC1c1cccnc1 (stereo not drawn) [Nicotine bidimethylmalonate]
- Nicotine Mass Loss ([1]; 40° C.): 4 µg/day
- Nicotine Mass Loss ([1]; 50° C.): 14 µg/day
- Nicotine Mass Loss ([1]; 60° C.): 53 µg/day

Compound: CN1CCC[C@H]1c1cccnc1.O=C(O)c1ccccc1O [Nicotine o-salicylate, nicotine ortho-salicylate]
- Nicotine Mass Loss ([1]; 40° C.): 15 µg/day
- Nicotine Mass Loss ([1]; 50° C.): 48 µg/day
- Nicotine Mass Loss ([1]; 60° C.): 178 µg/day

Compound: CN1CCCC1c1cccnc1 (stereo not drawn) [Nicotine]
- vapor pressure [7]: 0.0425 mmHg

Compound: CN1CCCC1c1cccnc1.O=C(O)C(O)C(O)C(=O)O (stereo not drawn) [Nicotine bitartrate]
- Nicotine Mass Loss ([1]; 40° C.): 1 µg/day
- Nicotine Mass Loss ([1]; 50° C.): 3 µg/day
- Nicotine Mass Loss ([1]; 60° C.): 10 µg/day
